Assay results taken from PubChem BioAssay AID623861 (Sanford-Burnham Center for Chemical Genomics, 2012).
The source made the active and inactive calls.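 Rule for the calls: active = compounds whose EC50 for boosting single-cell stem cell survival is at or below a set limit; inactive = the rest.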

What follows are compounds tested on human iPSC single-cell survival, ATP luminescence (assay: enhancers of single-cell hiPSC survival, dose response, luminescence (AID 623861)).
`NC(=O)c1ccc(NC(=O)CCC(=O)c2cccs2)cc1` gave an EC50 of 9.86 µM.
In the case of `C[C@@H]1CCCCO[C@@H](CN(C)S(=O)(=O)c2cccs2)[C@@H](C)CN([C@H](C)CO)C(=O)c2cc(NS(=O)(=O)c3ccccc3)ccc2O1`, the EC50 is reported as > 80 µM (inactive).
For `CCS(=O)(=O)c1ncc(Cl)c(C(=O)Nc2ccc(S(=O)(=O)N(C)c3ccccc3)cc2)n1`, the EC50 was > 80 µM (inactive).
In the case of `CC(OC(=O)c1cccc(S(=O)(=O)N2CCN(C)CC2)c1)C(=O)Nc1ccc(C(N)=O)cc1` (stereo not given), the EC50 is reported as 30.6 µM (inactive).
In the case of `COC(=O)c1[nH]c2ccccc2c1NC(=O)CCN1CCSCC1`, the EC50 is reported as > 80 µM (inactive).
In the case of `CCOC(=O)c1ccc(NC(=O)c2nc(S(=O)(=O)Cc3ccccc3)ncc2Cl)cc1`, the EC50 is reported as > 80 µM (inactive).
For `CCOc1ccc(S(=O)(=O)Nc2cccc(C(=O)N3CCN(c4ccc(OC)cc4)CC3)c2)cc1`, the EC50 was > 80 µM (inactive).
Work on `CCN1C/C(=C\c2cccc([N+](=O)[O-])c2)C(=O)/C(=C/c2cccc([N+](=O)[O-])c2)C1` yielded an EC50 of 20 µM.
For `CC1CCN(C(=O)c2[nH]cnc2C(=O)NCC(=O)OC(C)(C)C)CC1`, the EC50 was > 80 µM (inactive).
In the case of `O=C(NCCCN1CCCCCC1)c1ccc(CS(=O)(=O)Cc2ccccc2F)o1`, the EC50 is reported as > 80 µM (inactive).
For `COC(=O)c1ccc(C(=O)OC)c(NC(=O)CSc2cccc[n+]2[O-])c1`, the EC50 was > 80 µM (inactive).
`Cc1nnc2n(C3CCCCC3)c(=O)c3c4c(sc3n12)COC(C)(C)C4` was tested, and the EC50 was 38.5 µM (inactive).
For `Cc1ccc(CN2CCN(Cc3cn(C)nc3C)CC2CCO)o1` (stereo not given), the EC50 was > 80 µM (inactive).
`O=C1NCCN1c1ccccc1` was tested, and the EC50 was > 80 µM (inactive).
For `CN(Cc1ccc(C(F)(F)F)cc1)C(=O)[C@H]1O[C@@H](n2cnc3c(N)ncnc32)[C@H](O)[C@@H]1O`, the EC50 was 26.1 µM (inactive).
`Cc1cc(C)c2nc(N3CCN(C)CC3)c(C#N)cc2c1` was tested, and the EC50 was > 80 µM (inactive).
For `CN1Cc2cnnn2-c2ccccc2C1C#N` (stereo not given), the EC50 was 25.7 µM (inactive).
With `Cc1cc(Cl)n2nc(C)c(-c3ccc(Cl)cc3)c2n1` the EC50 was > 80 µM (inactive).
In the case of `NC(=O)c1ccc(Nc2nc(C(N)c3ccccc3Cl)cs2)cc1` (stereo not given), the EC50 is reported as 39.7 µM (inactive).
With `COc1ccc(S(=O)(=O)Nc2ccc3c(c2)C(=O)N([C@H](C)CO)C[C@H](C)[C@@H](CN(C)C(=O)NC2CCCCC2)O3)cc1` the EC50 was > 80 µM (inactive).
For `O=C(Nc1ccncc1)c1cc(S(=O)(=O)N2CCCC2)ccc1Cl`, the EC50 was 20.5 µM (inactive).
In the case of `CC(C)C12CN3CC(C(C)C)(CN(C1)C3c1ccccc1O)C2=O` (stereo not given), the EC50 is reported as > 80 µM (inactive).
With `O=C(Nc1ccncc1)c1c(F)cccc1F` the EC50 was 3.27 µM.
`Cc1ccc(NC(=O)/C(=C\c2ccc([N+](=O)[O-])cc2)NC(=O)c2ccccc2)cc1` was tested, and the EC50 was > 80 µM (inactive).
`CCCCc1cc(=O)oc2cc(OCc3cc(OC)c(OC)c(OC)c3)c(Cl)cc12` was tested, and the EC50 was > 80 µM (inactive).
For `CCCOC(=O)Oc1ccc2c(=O)c(Oc3cc(C)cc(C)c3)coc2c1`, the EC50 was > 80 µM (inactive).
In the case of `C[C@@H](NC(=O)[C@@H]1Cc2ccccc2CN1)C(=O)Nc1ccc2c(c1)OCO2`, the EC50 is reported as > 80 µM (inactive).
With `Cn1c(Cl)c(/C=N/OC(=O)c2ccc(Cl)cc2)c2ccccc21` the EC50 was > 80 µM (inactive).
In the case of `CCN1C/C(=C/c2cccc([N+](=O)[O-])c2)C(=O)/C(=C/c2cccc([N+](=O)[O-])c2)C1`, the EC50 is reported as 9.01 µM.
For `Cc1cccc(Cc2c(C)nc3c(C(=O)NCc4ccco4)cnn3c2C)c1`, the EC50 was > 80 µM (inactive).
In the case of `N#C/C(=C/c1cccc([N+](=O)[O-])c1)c1nnc2n1CCCCC2`, the EC50 is reported as 7.37 µM.
In the case of `NC(=O)CC(NC(=O)c1ccccc1)C(=O)O` (stereo not given), the EC50 is reported as > 80 µM (inactive).
`C=C1C(=O)OC2C1CCC(C)=C1C(=O)C3OC3(C)C12` (stereo not given) was tested, and the EC50 was > 80 µM (inactive).
With `Cc1ccc(CCN2CC(C(=O)NCCCN3CCCCCC3)CC2=O)cc1` (stereo not given) the EC50 was > 80 µM (inactive).
For `CCOC(=O)c1c(C)nc2sc3c(c2c1-c1ccc(OC)cc1)NC(c1ccccc1)NC3=O` (stereo not given), the EC50 was > 80 µM (inactive).
